Assay results reported in patent US20240124504A1, “AROMATIC HETEROCYCLIC COMPOUND, AND PHARMACEUTICAL COMPOSITION AND APPLICATION THEREOF” (GT APEIRON THERAPEUTICS LIMITED, priority 2020, published 2024).

Legend:
[1] = tested on: ovarian cancer A2780; assay: Cell biological activity detection (CyQuant, 72 hours), A2780; format: cell-based, human; conditions: A2780 cells, incubation for 72 hours
Outline: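 IC50 derived from CyQuant Direct nuclear staining (488 nm excitation) after 72 h compound exposure at 37 °C, 5% CO2. Compounds tested in 9 concentrations from 10 μM, 1:4 steps, 0.2% DMSO, on A2780 or HCC70 cells plated overnight at 2000/well in RPMI 1640 + 10% FBS.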

[2] = target: CDK2/cyclinE1 complex (Homo sapiens, UniProt P24941); assay: In-vitro enzymatic inhibitory activity testing, CDK2 inhibition assay (Caliper EZ Reader II); format: biochemical; conditions: CDK2/cyclinE1 0.5 nM, 180 min at 27° C.
Outline: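 CDK2/cyclinE1 (0.5 nM) phosphorylated 5-FAM-CDK7tide (2 μM) in MES buffer pH 6.5 with MgCl2, Tween 20 and BSA. Substrate and product were separated electrophoretically on a Caliper EZ Reader II. IC50 values came from nonlinear dose-response fits.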

[3] = tested on: Caco-2 cells; assay: Caco-2 membrane permeability and efflux rate; format: in vitro ADME; conditions: Caco-2, 5 μM, 2 hours; for Papp(B-A): basal end to top end; for Papp(A-B): top end to basal end
Experimental: (§1) The recovered Caco-2 cell suspension was seeded into a […] plate and cultured for 14-18 days. After being cultured for 14 days, the cells were fused and differentiated to be ready for a transport experiment. The Caco-2 cell plate was taken out from the incubator. Stock solutions of a to-be-tested compound and a control compound were formulated with DMSO and diluted with an HBSS (10 mM HEPES, pH 7.4) buffer to a final concentration of 5 μM. A test compound solution and a control drug solution were added to each well (top end) of an insert culture plate, and the HBSS (10 mM HEPES, pH 7.4) buffer was added to each well of a test compound receiving plate (basal end). When measuring the transport rate of the compound from the basal end to the top end, the test compound solution and the control drug solution were added to each well of the receiving plate (basal end), the HBSS (10 mM HEPES, pH 7.4) buffer solution was added to each well (top end) of the insert culture plate for the test compound solution, and incubation was carried out for 2 hours in a CO2 incubator at 37° C. After the transport experiment was completed, vortexing was carried out for 10 minutes at 1000 rpm. After sample quenching at each time point, LC/MS/MS analysis was carried out. A fluorescence value was measured after a two-hour transport experiment, a lucifer yellow solution was added in a transwell chamber (top end), a transport buffer solution was added in the basal end, and incubation was carried out for 30 minutes in the CO2 incubator at 37° C. The solution was taken out directly from the top end and the basal end (using basolateral wells) and transferred to a new 96-well plate. A cell fluorescence value was measured by a microplate reader (to detect membrane integrity), an excitation wavelength was […], and an emission wavelength was […]. All data were calculated by using Microsoft Excel, and a peak area was calculated according to chromatograms. An apparent permeability coefficient (Papp, unit: 10-6, cm/s) and an efflux rate (ER) of the compounds in Caco-2 cells were calculated by the specific concentrations of a receiving end and an administering end.

[4] = Caco-2 membrane permeability and efflux rate; format: in vitro ADME; conditions: human, Caco-2, Caco-2, 5 μM; for Papp B→A at 2 h, 5 μM: basal end to top end; for efflux ratio at 2 h, 5 μM: read-out: ER (efflux rate); for Papp A→B at 2 h, 5 μM: top end to basal end
Experimental: as §1

SMILES	IC50 [1]	IC50 [2]	ER (efflux rate) [3]	Papp(B-A) [3]	Papp(A-B) [3]	IC50 ([1]; Homo sapiens, A2780, 72 h)	Papp B→A at 2 h, 5 μM [4]	efflux ratio at 2 h, 5 μM [4]	Papp A→B at 2 h, 5 μM [4]
CP(C)(=O)c1cccc2c(-c3nc(NC4(CO)CCOC4)ncc3C(F)(F)F)c[nH]c12 (single isomer, unassigned) [Compound 119]	20 to 200 nM	5 to 50 µM	15.3	34.09 10^−6, cm/s	2.23 10^−6, cm/s				
CC(O)[C@H](C)Nc1ncc(C(F)(F)F)c(-c2c[nH]c3c(P(C)(C)=O)cccc23)n1 (single isomer, unassigned) [Compound 130]	20 to 200 nM	5 to 50 µM	6.03	35.08 10^−6, cm/s	5.82 10^−6, cm/s				
CP(C)(=O)c1cccc2c(-c3nc(NCC4CC4CO)ncc3C(F)(F)F)c[nH]c12 (single isomer, unassigned) [Compound 144]	20 to 200 nM	5 to 50 µM	12.7	36.73 10^−6, cm/s	2.89 10^−6, cm/s				
CC(CO)CNc1ncc(C(F)(F)F)c(-c2c[nH]c3c(P(C)(C)=O)cccc23)n1 (single isomer, unassigned) [Compound 150]	20 to 200 nM	0.2 to 5 µM	5.95	27.87 10^−6, cm/s	4.68 10^−6, cm/s				
CP(C)(=O)c1cccc2c(-c3nc(NCC4CC(O)C4)ncc3C(F)(F)F)c[nH]c12 (centres unmarked) [Compound 126, (3-(2-(((3-hydroxycyclobutyl)methyl)amino)-5-(trifluoromethyl)pyrimidin-4-yl)-1H-indole-7-yl)dimethylphosphine oxide]		0.2 to 5 µM				20 to 200 nM	24.6 ×10⁻⁶ cm/s	7.41	3.32 ×10⁻⁶ cm/s
CP(C)(=O)c1cccc2c(-c3nc(NC[C@H]4C[C@](C)(O)C4)ncc3C(F)(F)F)c[nH]c12 [Compound 127, (3-(2-(((trans-3-hydroxy-3-methylcyclobutyl)methyl)amino)-5-(trifluoromethyl)pyrimidin-4-yl)-1H-indole-7-yl)dimethylphosphine oxide]		0.2 to 5 µM				< 20 nM	22.4 ×10⁻⁶ cm/s	5.86	3.82 ×10⁻⁶ cm/s
CN(C)[C@H]1CC[C@H](Nc2ncc(C(F)(F)F)c(-c3c[nH]c4c(P(C)(C)=O)cccc34)n2)C1 [Compound 137, (3-(2-(((1S,3S)-3-(dimethylamino)cyclopentyl)amino)-5-(trifluoromethyl)pyrimidin-4-yl)-1H-indole-7-yl)dimethylphosphine oxide]		0.2 to 5 µM				< 20 nM	34.6 ×10⁻⁶ cm/s	12.4	2.79 ×10⁻⁶ cm/s
CP(C)(=O)c1cccc2c(-c3nc(N[C@@H]4CC[C@H]4O)ncc3C(F)(F)F)c[nH]c12 [Compound 153, (3-(2-(((1R,2R)-2-hydroxycyclobutyl)amino)-5-(trifluoromethyl)pyrimidin-4-yl)-1hydro-indole-7-yl)dimethylphosphine oxide]		0.2 to 5 µM				20 to 200 nM	24.8 ×10⁻⁶ cm/s	5.94	4.17 ×10⁻⁶ cm/s
CP(C)(=O)c1cccc2c(-c3nc(N[C@H]4CC[C@@H]4O)ncc3C(F)(F)F)c[nH]c12 [Compound 154, (3-(2-(((1S,2S)-2-hydroxycyclobutyl)amino)-5-(trifluoromethyl)pyrimidin-4-yl)-1hydro-indole-7-yl)dimethylphosphine oxide]		0.2 to 5 µM				< 20 nM	26.4 ×10⁻⁶ cm/s	5.97	4.42 ×10⁻⁶ cm/s
CP(C)(=O)c1cccc2c(-c3nc(N[C@H]4CCC[C@@H]4O)ncc3C(F)(F)F)c[nH]c12 [Compound 155, (3-(2-(((1S,2S)-2-hydroxycyclopentyl)amino)-5-(trifluoromethyl)pyrimidin-4-yl)-1hydro-indole-7-yl)dimethylphosphine oxide]		0.2 to 5 µM				< 20 nM	24 ×10⁻⁶ cm/s	4.31	5.57 ×10⁻⁶ cm/s
CP(C)(=O)c1cccc2c(-c3nc(N[C@@H]4CCC[C@H]4O)ncc3C(F)(F)F)c[nH]c12 [Compound 156]		5 to 50 µM				20 to 200 nM	20.6 ×10⁻⁶ cm/s	3.87	5.32 ×10⁻⁶ cm/s
C[C@@H](CO)Nc1ncc(C(F)(F)F)c(-c2c[nH]c3c(P(C)(C)=O)cc(F)cc23)n1 [Compound 158]		0.2 to 5 µM				< 20 nM	28.6 ×10⁻⁶ cm/s	5.65	5.07 ×10⁻⁶ cm/s
CP(C)(=O)c1cccc2c(-c3nc(NC4(CO)CCC4)ncc3C(F)(F)F)c[nH]c12 [Compound 168, (3-(2-((1-(hydroxymethyl)cyclobutyl)amino)-5-(trifluoromethyl)pyrimidin-4-yl)-1H-indole-7-yl)dimethylphosphine oxide]		5 to 50 µM				20 to 200 nM	17.1 ×10⁻⁶ cm/s	2.14	7.99 ×10⁻⁶ cm/s
CP(C)(=O)c1cccc2c(-c3nc(NC45CC(O)(C4)C5)ncc3C(F)(F)F)c[nH]c12 [Compound 174, (3-(2-((3-hydroxybicyclo[1.1.1]pentan-1-yl)amino)-5-(trifluoromethyl)pyrimidin-4-yl)-1H-indole-7-yl)dimethylphosphine oxide]		0.2 to 5 µM				< 20 nM	34.8 ×10⁻⁶ cm/s	17.1	2.03 ×10⁻⁶ cm/s
C[C@@H](CO)Nc1ncc(C#N)c(-c2c[nH]c3c(P(C)(C)=O)cccc23)n1 [Compound 179, (S)-4-(7-(dimethylphosphoryl)-1H-indole-3-yl)-2-((1-hydroxypropan-2-yl)amino)pyrimidine-5-carbonitrile]		0.2 to 5 µM				20 to 200 nM	33.5 ×10⁻⁶ cm/s	65.9	0.51 ×10⁻⁶ cm/s
C[C@@H](CO)Nc1ncc(C(F)(F)F)c(-c2c[nH]c3c(P(C)(C)=O)c(F)ccc23)n1 [Compound 195]		0.2 to 5 µM				< 20 nM	24.4 ×10⁻⁶ cm/s	2.36	10.3 ×10⁻⁶ cm/s
